In PubChem BioAssay (NCI):
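96-well plates; 48 h exposure; 5 concentrations. Endpoints by linear interpolation between flanking doses. Not reached: highest tested concentration assigned. TGI marks complete inhibition of growth.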

Legend:
Experiment in all cases: DTP human tumour cell line panel, 48 h
[1] = test system: SNB-75 CNS
[2] = test system: SN12C renal
[3] = test system: KM20L2 colon
[4] = test system: PC-3 prostate
[5] = test system: TK-10 renal
[6] = test system: HOP-62 NSCLC
[7] = test system: HCT-116 colon
[8] = test system: NCI-H522 lung
[9] = test system: MDA-N
[10] = test system: DMS 273 small cell lung
[11] = test system: HCC-2998 colon
[12] = test system: M14 melanoma
[13] = test system: HOP-92 NSCLC
[14] = test system: HCT-15 colon
[15] = test system: OVCAR-5 ovarian
[16] = test system: SK-MEL-28 melanoma
[17] = test system: 786-0 renal
[18] = test system: LXFL 529 NSCLC
[19] = test system: KM12 colon
[20] = test system: UACC-257 melanoma
[21] = test system: MDA-MB-435
[22] = test system: EKVX NSCLC
[23] = test system: OVCAR-8 ovarian
[24] = test system: ACHN renal
[25] = test system: NCI-H23 lung
[26] = test system: K-562 leukemia
[27] = test system: SNB-78 CNS
[28] = test system: HS 578T breast
[29] = test system: OVCAR-4 ovarian
[30] = test system: SW-620 colon
[31] = test system: SF-295 CNS
[32] = test system: SF-539 CNS
[33] = test system: IGROV1 ovarian
[34] = test system: MDA-MB-231 breast
[35] = test system: RPMI-8226 leukemia
[36] = test system: A498 renal
[37] = test system: MALME-3M melanoma
[38] = test system: U251 CNS
[39] = test system: A549 NSCLC
[40] = test system: NCI-H460 lung
[41] = test system: NCI/ADR-RES ovarian
[42] = test system: NCI-H226 lung
[43] = test system: CAKI-1 renal
[44] = test system: MCF7 breast
[45] = test system: M19-MEL melanoma
[46] = test system: SK-MEL-2 melanoma
[47] = test system: T-47D breast
[48] = test system: HL-60(TB) leukemia
[49] = test system: LOX IMVI melanoma
[50] = test system: COLO 205 colon
[51] = test system: CCRF-CEM leukemia
[52] = test system: UO-31 renal
[53] = test system: DLD-1 colon
[54] = test system: SF-268 CNS
[55] = test system: MOLT-4 leukemia
[56] = test system: DMS 114 small cell lung
[57] = test system: SK-OV-3 ovarian
[58] = test system: OVCAR-3 ovarian
[59] = test system: HT29 colon
[60] = test system: UACC-62 melanoma
[61] = test system: BT-549 breast
[62] = test system: HOP-18 NSCLC
[63] = test system: SNB-19 CNS
[64] = test system: RXF 393 renal
[65] = test system: SR leukemia
[66] = test system: SK-MEL-5 melanoma
[67] = test system: DU-145 prostate
[68] = test system: XF 498 CNS

CC(=O)OC(C)C1C2=C(C(=O)CC1(C)O)C(=O)c1c(ccc(-c3ccc4c(c3O)C(=O)C3=C(C4=O)C(C(C)OC(C)=O)C(C)(O)CC3=O)c1O)C2=O (stereo not drawn)
TGI [1]: 5.92 µM
TGI [2]: 6.58 µM
TGI [3]: 4.59 µM
TGI [4]: 8.74 µM
TGI [5]: 5.41 µM
TGI [6]: 33.4 µM
TGI [7]: 1.77 µM
TGI [8]: 4.25 µM
TGI [9]: 7.34 µM
TGI [10]: 3.05 µM
TGI [11]: 25.9 µM
TGI [12]: 4.3 µM
TGI [13]: 3.08 µM
TGI [14]: 5.49 µM
TGI [15]: 11.3 µM
TGI [16]: 4.7 µM
TGI [17]: 3.44 µM
TGI [18]: 1.51 µM
TGI [19]: 10.6 µM
TGI [20]: 3.48 µM
TGI [21]: 4.19 µM
TGI [22]: 26.1 µM
TGI [23]: 7.42 µM
TGI [24]: 3.22 µM
TGI [25]: 3.07 µM
TGI [26]: > 100 µM
TGI [27]: 9.63 µM
TGI [28]: 5 µM
TGI [29]: 5.26 µM
TGI [30]: 2.1 µM
TGI [31]: 24 µM
TGI [32]: 3.54 µM
TGI [33]: 22.4 µM
TGI [34]: 4.98 µM
TGI [35]: > 100 µM
TGI [36]: 8.51 µM
TGI [37]: 2.12 µM
TGI [38]: 12.9 µM
TGI [39]: 18.8 µM
TGI [40]: 21.7 µM
TGI [41]: 45.1 µM
TGI [42]: 27.8 µM
TGI [43]: 6.06 µM
TGI [44]: 4.06 µM
TGI [45]: 2700 nM
TGI [46]: 2.74 µM
TGI [47]: 4.61 µM
TGI [48]: > 100 µM
TGI [49]: 3.07 µM
TGI [50]: 1.92 µM
TGI [51]: > 100 µM
TGI [52]: 9.16 µM
TGI [53]: 2.43 µM
TGI [54]: 19.4 µM
TGI [55]: > 100 µM
TGI [56]: 1240 nM
TGI [57]: 23.6 µM
TGI [58]: 5.29 µM
TGI [59]: 3.98 µM
TGI [60]: 3.1 µM
TGI [61]: 2830 nM
TGI [62]: 1.74 µM
TGI [63]: 24 µM
TGI [64]: 3.59 µM
TGI [65]: 26.5 µM
TGI [66]: 8.22 µM
TGI [67]: 18.3 µM

O=c1[nH]/c(=C/c2ccc(OCc3ccccc3)cn2)c(=O)[nH]/c1=C/c1ccc([N+](=O)[O-])cc1
TGI [1]: 70.2 µM
TGI [2]: > 100 µM
TGI [4]: > 100 µM
TGI [5]: > 100 µM
TGI [6]: > 100 µM
TGI [7]: > 100 µM
TGI [8]: > 100 µM
TGI [9]: > 100 µM
TGI [11]: > 100 µM
TGI [12]: > 100 µM
TGI [13]: > 100 µM
TGI [14]: > 100 µM
TGI [15]: > 100 µM
TGI [16]: > 100 µM
TGI [17]: > 100 µM
TGI [19]: > 100 µM
TGI [20]: > 100 µM
TGI [21]: > 100 µM
TGI [22]: > 100 µM
TGI [23]: > 100 µM
TGI [24]: > 100 µM
TGI [25]: > 100 µM
TGI [26]: > 100 µM
TGI [28]: > 78.4 µM
TGI [29]: > 100 µM
TGI [30]: > 100 µM
TGI [31]: > 100 µM
TGI [32]: > 100 µM
TGI [33]: > 100 µM
TGI [34]: > 100 µM
TGI [35]: > 100 µM
TGI [36]: > 84.3 µM
TGI [37]: > 100 µM
TGI [38]: > 100 µM
TGI [39]: > 100 µM
TGI [40]: > 100 µM
TGI [41]: > 100 µM
TGI [42]: > 100 µM
TGI [43]: > 73.1 µM
TGI [44]: > 100 µM
TGI [46]: > 100 µM
TGI [47]: > 100 µM
TGI [48]: > 100 µM
TGI [49]: > 100 µM
TGI [50]: > 100 µM
TGI [51]: > 100 µM
TGI [52]: > 100 µM
TGI [54]: > 100 µM
TGI [55]: > 100 µM
TGI [57]: > 100 µM
TGI [58]: > 100 µM
TGI [59]: > 100 µM
TGI [60]: > 100 µM
TGI [61]: > 100000 nM
TGI [63]: > 100 µM
TGI [64]: > 100 µM
TGI [65]: > 100 µM
TGI [66]: > 100 µM
TGI [67]: > 100 µM

Cn1c(=O)nc2n(-c3cccc(Br)c3)c3ccccc3nc-2c1=O
TGI [1]: 22.2 µM
TGI [2]: 17.1 µM
TGI [3]: 6.97 µM
TGI [5]: 24.1 µM
TGI [6]: 28 µM
TGI [7]: 18.1 µM
TGI [8]: 20.1 µM
TGI [10]: 14.7 µM
TGI [11]: 9.59 µM
TGI [12]: 10.1 µM
TGI [14]: 15.1 µM
TGI [15]: 26.1 µM
TGI [17]: 16.7 µM
TGI [18]: 19.5 µM
TGI [19]: 21 µM
TGI [20]: 6.58 µM
TGI [22]: 13.3 µM
TGI [23]: 25.4 µM
TGI [24]: 13.7 µM
TGI [25]: 4.91 µM
TGI [26]: 35.9 µM
TGI [27]: 33.3 µM
TGI [29]: 14.6 µM
TGI [30]: 8.53 µM
TGI [31]: 18.6 µM
TGI [32]: 18.2 µM
TGI [33]: 23.7 µM
TGI [35]: 37.7 µM
TGI [36]: 22.1 µM
TGI [37]: 6.46 µM
TGI [38]: 19.2 µM
TGI [39]: 14.5 µM
TGI [40]: 12.2 µM
TGI [68]: 15.8 µM
TGI [42]: 22.2 µM
TGI [43]: 32.7 µM
TGI [45]: 3030 nM
TGI [46]: 18.2 µM
TGI [48]: 9.76 µM
TGI [50]: 9.64 µM
TGI [51]: 26.9 µM
TGI [52]: 26.3 µM
TGI [53]: 29.1 µM
TGI [54]: 23.4 µM
TGI [56]: 4450 nM
TGI [57]: 50.5 µM
TGI [58]: 5.94 µM
TGI [60]: 3.27 µM
TGI [62]: 19.4 µM
TGI [63]: 6.86 µM
TGI [64]: 24 µM
TGI [66]: 3.41 µM
